Reference: publication PMC6395531 (Journal of medicinal chemistry, 2019)

Legend:
[1] = tested on: Salmonella typhimurium (TA98, TA100, TA1535, TA1537) and Escherichia coli (WP2 uvrA); experiment: Bacterial reverse mutation assay; conditions: presence and absence of S9; monotartaric salts; 1.5 to 5000 μg/plate
[2] = Caco-2 bidirectional permeability; type: in vitro ADME; conditions: Table 3
[3] = Pharmacokinetics of 29 in rats; conditions: male, Sprague-Dawley, rat, in vivo

Which “mutagenicity in the TA1537 strain (Ames assay)” value (from here on “mutagenicity”) [1] does the source give for `CCc1ccc2nc(N3CCC(NCC4(C)COC4)CC3)c(-c3nc(C)no3)cc2c1` [Compound 35, 1-(6-ethyl-3-(3-methyl-1,2,4-oxadiazol-5-yl)quinolin-2-yl)-N-((3-methyloxetan-3-yl)methyl)piperidin-4-amine] here?
Its value is “exhibited mutagenicity in the TA1537 strain in the presence and absence of S9”.

With `CCc1ccc2nc(N3CCC(N[C@@H]4CCCOC4)CC3)c(-c3nc(C)no3)cc2c1` [Compound 36, (R)-1-(6-ethyl-3-(3-methyl-1,2,4-oxadiazol-5-yl)quinolin-2-yl)-N-(tetrahydro-2H-pyran-3-yl)piperidin-4-amine] as the compound, how does the “mutagenicity” value [1] read?
Its value is “showed a mutagenic response in the TA1537 strain but only in the absence of S9”.

For `CCc1ccc2nc(N3CCC(N[C@H]4CCCC[C@@H]4O)CC3)c(-c3nc(C)no3)cc2c1` [Compound 34, (1S,2S)-2-((1-(6-ethyl-3-(3-methyl-1,2,4-oxadiazol-5-yl)quinolin-2-yl)piperidin-4-yl)amino)cyclohexanol], which “mutagenicity” value [1] is on record?
The value was “exhibited mutagenicity in the TA1537 strain in the presence and absence of S9”.

With `Cc1ccc2nc(N3CCC(NC4CCOCC4)CC3)c(-c3nc(C)no3)cc2c1` [Compound 29, 1-(6-methyl-3-(3-methyl-1,2,4-oxadiazol-5-yl)quinolin-2-yl)-N-(tetrahydro-2H-pyran-4-yl)piperidin-4-amine] as the compound, how does the “Caco-2 cells A-B” value [2] read?
The value was 26.2 ×10⁻⁶ cm/s.

And the AUC(0-inf) ([3]; iv, 1 mg/kg)?
The AUC(0-inf) was 212 ng·h/mL.

What about the AUC(0-inf) ([3]; po, 2 mg/kg) of the same compound?
Its AUC(0-inf) is 28.4 ng·h/mL.

Which “mutagenicity” value [1] does the source give for `CCc1ccc2nc(N3CCC(N[C@@H](C)C(C)C)CC3)c(-c3nc(C)no3)cc2c1` [Compound 33, (S)-1-(6-ethyl-3-(3-methyl-1,2,4-oxadiazol-5-yl)quinolin-2-yl)-N-(3-methylbutan-2-yl)piperidin-4-amine] here?
Its value is “showed a mutagenic response in the TA1537 strain but only in the absence of S9”.
